From patent US10865191B2, “Heterocyclic compounds useful as modulators of TNF alpha” (BRISTOL-MYERS SQUIBB COMPANY, priority 2015, dated 2020)
Read-outs that look alike come from different tables or passages of the source.

Target: TNFα (Homo sapiens, UniProt P01375)
Test: TNF induced HEK-Blue assay (NF-kB-driven secreted alkaline phosphatase reporter)
Format: cell-based
Conditions: TNFα 0.5 ng/mL, HEK-Blue-CD40L cells, 18 h
Procedure, shortened: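 HEK-Blue-CD40L cells (NF-kB-driven SEAP reporter), 20,000/well, added after 30 min pre-incubation of compound (0.004–25 μM final) with TNFα 0.5 ng/mL final at 37 °C; 18 h incubation. SEAP read with QUANTI-Blue at 620 nm; IC50 from 4-parameter logistic fit, normalized to unstimulated and stimulated DMSO controls.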

[1] = read-out: TNF induced HEK-Blue assay IC50 value

TNFα, sequence (P01375 77-233 limits assumed): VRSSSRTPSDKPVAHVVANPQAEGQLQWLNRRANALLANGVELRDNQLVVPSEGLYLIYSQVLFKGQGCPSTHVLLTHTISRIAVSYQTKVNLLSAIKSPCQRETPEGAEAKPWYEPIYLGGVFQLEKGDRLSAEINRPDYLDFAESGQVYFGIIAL

CC(Nc1c(Cl)cnc2ccc(-c3cnc(N4CCNC(=O)C4)nc3)cc12)c1nc(N)ccc1F (centres unmarked) [Example 562, 4-(5-(4-((1-(6-amino-3-fluoropyridin-2-yl)ethyl)amino)-3-chloroquinolin-6-yl)pyrimidin-2-yl) piperazin-2-one]
IC50 [1]: < 1000 nM

C[C@H](Nc1c(Cl)cnc2ccc(-c3cnc(C(C)(C)O)nc3)cc12)[C@H]1CCCN(S(C)(=O)=O)C1 [Example 563, 2-(5-(3-chloro-4-(((S)-1-((S)-1-(methylsulfonyl)piperidin-3-yl)ethyl)amino)quinolin-6-yl)pyrimidin-2-yl)propan-2-ol]
IC50 [1]: 1000 to 10000 nM

C[C@H](Nc1c(Cl)cnc2ccc(-c3cnc(C(C)(C)O)nc3)cc12)[C@H]1CCCN(S(=O)(=O)c2cnn(C)c2)C1 [Example 564, 2-(5-(3-chloro-4-(((S)-1-((S)-1-((1-methyl-1H-pyrazol-4-yl)sulfonyl)piperidin-3-yl)ethyl)amino)quinolin-6-yl)pyrimidin-2-yl)propan-2-ol]
IC50 [1]: 1000 to 10000 nM

C[C@H](Nc1c(Cl)cnc2ccc(-c3cnc(C(C)(C)O)nc3)cc12)[C@H]1CCCN(C(=O)c2cn[nH]c2)C1 [Example 565, ((S)-3-((S)-1-((3-chloro-6-(2-(2-hydroxypropan-2-yl)pyrimidin-5-yl)quinolin-4-yl)amino)ethyl)piperidin-1-yl)(1H-pyrazol-4-yl)methanone]
IC50 [1]: 10000 to 25000 nM

C[C@H](Nc1c(Cl)cnc2ccc(-c3cnc(C(C)(C)O)nc3)cc12)[C@H]1CCCN(C(=O)c2cccnc2)C1 [Example 566, ((S)-3-((S)-1-((3-chloro-6-(2-(2-hydroxypropan-2-yl)pyrimidin-5-yl)quinolin-4-yl)amino)ethyl)piperidin-1-yl)(pyridin-3-yl)methanone]
IC50 [1]: 1000 to 10000 nM

C[C@H](Nc1c(Cl)cnc2ccc(-c3cnc(C(C)(C)O)nc3)cc12)[C@H]1CCCN(c2cncnc2)C1 [Example 567, 2-(5-(3-chloro-4-(((S)-1-((S)-1-(pyrimidin-5-yl)piperidin-3-yl)ethyl)amino)quinolin-6-yl)pyrimidin-2-yl)propan-2-ol]
IC50 [1]: 1000 to 10000 nM

C[C@@H](Nc1c(Cl)cnc2ccc(-c3ccc(C4(NCCO)CCC4)cc3)cc12)c1ccccc1F [Example 568, (R)-2-((1-(4-(3-chloro-4-((1-(2-fluorophenyl)ethyl)amino)quinolin-6-yl)phenyl)cyclobutyl)amino)ethan-1-ol]
IC50 [1]: < 1000 nM

C[C@@H](Nc1c(Cl)cnc2ccc(-c3ccc(CNC(N)=O)cc3)cc12)c1ccccc1F [Example 569, (R)-1-(4-(3-chloro-4-((1-(2-fluorophenyl)ethyl)amino)quinolin-6-yl)benzyl)urea]
IC50 [1]: < 1000 nM

Cc1nc2cc(F)c(-c3cnc(C(C)(C)O)nc3)nc2c(N[C@H](C)c2cc(C(O)CO)ccc2F)c1Cl (stereo partly drawn) [Example 570, 1-(3-((R)-1-((3-chloro-7-fluoro-6-(2-(2-hydroxypropan-2-yl)pyrimidin-5-yl)-2-methyl-1,5-naphthyridin-4-yl)amino)ethyl)-4-fluorophenyl)ethane-1,2-diol]
IC50 [1]: 1000 to 10000 nM

C=Cc1cccc([C@@H](C)Nc2c(Cl)c(C)nc3cc(F)c(-c4cnc(C(C)(C)O)nc4)nc23)c1 [Example 571, (R)-2-(5-(7-chloro-3-fluoro-6-methyl-8-((1-(3-vinylphenyl)ethyl)amino)-1,5-naphthyridin-2-yl)pyrimidin-2-yl)propan-2-ol]
IC50 [1]: < 1000 nM

C=Cc1ccc(F)c([C@@H](C)Nc2c(Cl)c(C)nc3cc(F)c(-c4cnc(C(C)(C)O)nc4)nc23)c1 [Example 572, (R)-2-(5-(7-chloro-3-fluoro-8-((1-(2-fluoro-5-vinylphenyl)ethyl)amino)-6-methyl-1,5-naphthyridin-2-yl)pyrimidin-2-yl)propan-2-ol]
IC50 [1]: 1000 to 10000 nM

C[C@@H](Nc1c(Cl)cnc2cc(F)c(-c3cnc(C(C)(C)O)nc3)nc12)c1cccc(C(O)CO)c1 (stereo partly drawn) [Example 573, 1-(3-((R)-1-((3-chloro-7-fluoro-6-(2-(2-hydroxypropan-2-yl)pyrimidin-5-yl)-1,5-naphthyridin-4-yl)amino)ethyl)phenyl)ethane-1,2-diol]
IC50 [1]: < 1000 nM

C=Cc1cccc([C@@H](C)Nc2c(Cl)cnc3cc(F)c(-c4cnc(C(C)(C)O)nc4)nc23)c1 [Example 574, (R)-2-(5-(7-chloro-3-fluoro-8-((1-(3-vinylphenyl)ethyl)amino)-1,5-naphthyridin-2-yl)pyrimidin-2-yl)propan-2-ol]
IC50 [1]: < 1000 nM

Cc1nc2cc(F)c(-c3cnc(C(C)(C)O)nc3)nc2c(N[C@H](C)c2cccc(C(O)CO)c2)c1Cl (stereo partly drawn) [Example 575, 1-(3-((R)-1-((3-chloro-7-fluoro-6-(2-(2-hydroxypropan-2-yl)pyrimidin-5-yl)-2-methyl-1,5-naphthyridin-4-yl)amino)ethyl)phenyl)ethane-1,2-diol]
IC50 [1]: < 1000 nM

C[C@@H](Nc1c(Cl)cnc2cc(F)c(-c3cnc(C(C)(C)O)nc3)nc12)c1cccc(CO)c1 [Example 576, (R)-2-(5-(7-chloro-3-fluoro-8-((1-(3-(hydroxymethyl)phenyl)ethyl)amino)-1,5-naphthyridin-2-yl)pyrimidin-2-yl)propan-2-ol]
IC50 [1]: < 1000 nM

Cc1nc2cc(F)c(-c3cnc(C(C)(C)O)nc3)nc2c(N[C@H](C)c2cc(CO)ccc2F)c1Cl [Example 577, (R)-2-(5-(7-chloro-3-fluoro-8-((1-(2-fluoro-5-(hydroxymethyl)phenyl)ethyl)amino)-6-methyl-1,5-naphthyridin-2-yl)pyrimidin-2-yl)propan-2-ol]
IC50 [1]: < 1000 nM

Cc1nc2cc(F)c(-c3cnc(C(C)(C)O)nc3)nc2c(N[C@H](C)c2cccc(CO)c2)c1Cl [Example 578, (R)-2-(5-(7-chloro-3-fluoro-8-((1-(3-(hydroxymethyl)phenyl)ethyl)amino)-6-methyl-1,5-naphthyridin-2-yl)pyrimidin-2-yl) propan-2-ol]
IC50 [1]: < 1000 nM

C[C@@H](Nc1c(Cl)cnc2cc(F)c(-c3cnc(C(C)(C)O)nc3)nc12)c1cc(C(=O)O)ccc1F [Example 579, (R)-3-(1-((3-chloro-7-fluoro-6-(2-(2-hydroxypropan-2-yl)pyrimidin-5-yl)-1,5-naphthyridin-4-yl)amino)ethyl)-4-fluorobenzoic acid]
IC50 [1]: 1000 to 10000 nM

Cc1nc2cc(F)c(-c3cnc(C(C)(C)O)nc3)nc2c(N[C@H](C)c2cccc(C(N)=O)c2)c1Cl [Example 580, (R)-3-(1-((3-chloro-7-fluoro-6-(2-(2-hydroxypropan-2-yl)pyrimidin-5-yl)-2-methyl-1,5-naphthyridin-4-yl)amino)ethyl)benzamide]
IC50 [1]: < 1000 nM

C[C@@H](Nc1c(Cl)cnc2cc(F)c(-c3cnc(C(C)(C)O)nc3)nc12)c1cccc(C(N)=O)c1 [Example 581, (R)-3-(1-((3-chloro-7-fluoro-6-(2-(2-hydroxypropan-2-yl)pyrimidin-5-yl)-1,5-naphthyridin-4-yl)amino)ethyl)benzamide]
IC50 [1]: 10000 to 25000 nM

Cc1nc2cc(F)c(-c3cnc(C(C)(C)O)nc3)nc2c(N[C@H](C)c2cc(C(=O)O)ccc2F)c1Cl [Example 582, (R)-3-(1-((3-chloro-7-fluoro-6-(2-(2-hydroxypropan-2-yl)pyrimidin-5-yl)-2-methyl-1,5-naphthyridin-4-yl)amino)ethyl)-4-fluorobenzoic acid]
IC50 [1]: 10000 to 25000 nM

C[C@@H](Nc1c(Cl)cnc2cc(F)c(-c3cnc(C(C)(C)O)nc3)nc12)c1cc(C(N)=O)ccc1F [Example 583, (R)-3-(1-((3-chloro-7-fluoro-6-(2-(2-hydroxypropan-2-yl)pyrimidin-5-yl)-1,5-naphthyridin-4-yl)amino)ethyl)-4-fluorobenzamide]
IC50 [1]: < 1000 nM

Cc1nc2cc(F)c(-c3cnc(C(C)(C)O)nc3)nc2c(N[C@H](C)c2cc(C(N)=O)ccc2F)c1Cl [Example 584, (R)-3-(1-((3-chloro-7-fluoro-6-(2-(2-hydroxypropan-2-yl)pyrimidin-5-yl)-2-methyl-1,5-naphthyridin-4-yl)amino)ethyl)-4-fluorobenzamide]
IC50 [1]: < 1000 nM

C[C@@H](Nc1c(Cl)cnc2ccc(-c3cnc(NCC(N)=O)nc3)cc12)c1ccccc1F [Example 585, (R)-2-((5-(3-chloro-4-((1-(2-fluorophenyl)ethyl)amino)quinolin-6-yl)pyrimidin-2-yl)amino)acetamide]
IC50 [1]: 10000 to 25000 nM

Cc1nc2cc(F)c(-c3cnc(C(C)(C)O)nc3)nc2c(N[C@H](C)c2cc(C#N)ccc2F)c1Cl [Example 586, (R)-3-(1-((3-chloro-7-fluoro-6-(2-(2-hydroxypropan-2-yl)pyrimidin-5-yl)-2-methyl-1,5-naphthyridin-4-yl)amino)ethyl)-4-fluorobenzonitrile]
IC50 (TNF induced HEK-Blue assay IC50 value): < 1000 nM

C[C@@H](Nc1c(Cl)cnc2ccc(-c3cnc(NC4(C(N)=O)CC4)nc3)cc12)c1ccccc1F [Example 587, (R)-1-((5-(3-chloro-4-((1-(2-fluorophenyl)ethyl)amino)quinolin-6-yl)pyrimidin-2-yl)amino)cyclopropane-1-carboxamide]
IC50 [1]: < 1000 nM

C[C@@H](Nc1c(Cl)cnc2cc(F)c(-c3cnc(C(C)(C)O)nc3)nc12)c1cccc(C#N)c1 [Example 588, (R)-3-(1-((3-chloro-7-fluoro-6-(2-(2-hydroxypropan-2-yl)pyrimidin-5-yl)-1,5-naphthyridin-4-yl)amino)ethyl)benzonitrile]
IC50 [1]: < 1000 nM

Cc1nc2cc(F)c(-c3cnc(C(C)(C)O)nc3)nc2c(N[C@H](C)c2cccc(C#N)c2)c1Cl [Example 589, (R)-3-(1-((3-chloro-7-fluoro-6-(2-(2-hydroxypropan-2-yl)pyrimidin-5-yl)-2-methyl-1,5-naphthyridin-4-yl)amino)ethyl)benzonitrile]
IC50 [1]: < 1000 nM

C[C@@H](Nc1c(Cl)cnc2cc(F)c(-c3cnc(C(C)(C)O)nc3)nc12)c1cc(C#N)ccc1F [Example 590, (R)-3-(1-((3-chloro-7-fluoro-6-(2-(2-hydroxypropan-2-yl)pyrimidin-5-yl)-1,5-naphthyridin-4-yl)amino)ethyl)-4-fluorobenzonitrile]
IC50 [1]: < 1000 nM
